# Experimental data: ChEMBL document CHEMBL3885861, “Open TG-GATES”
# *1 amine or outer side, *2 acyl side, *3 side chain or, on linkers, in order; H or OH if unused. Where a SMILES comes first, the peptide text is derived from it. Bridges are numbered along the chain shown (N, C = ends). [ ]: non-standard residue; d: D form. Trp(2-yl) = O=C([C@H](Cc1c([*:3])[nH]c2ccccc12)N[*:1])[*:2]; Leu(4R-OH,5-OH) = C[C@](O)(CO)C[C@H](N)C(=O)O; cisHyp = O=C(O)[C@@H]1C[C@H](O)CN1
# Species on record: Rattus norvegicus
# Test: Open TG-GATES - Regimen: Single
# Type: toxicity, organism-based, Sprague-Dawley
# Design: regimen Single, gender Male, age 6 weeks
# Settings: in vivo, ip, 0 mg/kg, route intraperitoneal injection, dose level Control; for APTT / Bas / Eos / Fbg / Hb / Ht / Lym / MCH / MCHC / MCV / Mono / Neu / PT / Plat / RBC / Ret / WBC: tissue Blood; for KIDNEY_L / KIDNEY_R / KIDNEY_TOTAL: tissue Kidney; for LIVER: tissue Liver; for A/G / ALP / ALT / AST / BUN / CRE / Ca / Cl / DBIL / GLC / IP / K / LDH / Na / PL / RALB / TBIL / TC / TG / TP / gamma-GTP: tissue Plasma
smiles,measurement,setting,value
"C[C@@H]1NC(=O)[C@H](C[C@@](C)(O)CO)NC(=O)[C@@H]2Cc3c([nH]c4ccccc34)SC[C@H](NC(=O)[C@@H]([C@H](C)O)NC1=O)C(=O)N1C[C@@H](O)C[C@H]1C(=O)N[C@@H](C)C(=O)N2 [PHALLOIDIN] (cyclo(A[dT]C[cisHyp]A[Trp(2-yl)][Leu(4R-OH,5-OH)]); thioether 3-6)",TERMINAL_BW,3 h,206 g
same,APTT,3 h,23.6 s
same,Bas,3 h,0%
same,Eos,3 h,0.2%
same,Fbg,3 h,283.8 mg/dL
same,Hb,3 h,12.9 g/dL
same,Ht,3 h,40.5%
same,Lym,3 h,73.8%
same,MCH,3 h,20.1 pg
same,MCHC,3 h,32%
same,MCV,3 h,62.8 fL
same,Mono,3 h,2.4%
same,Neu,3 h,22.8%
same,PT,3 h,16.1 s
same,Plat,3 h,112.9 x10_4/uL
same,RBC,3 h,645 x10_4/ul
same,Ret,3 h,7.5%
same,WBC,3 h,74.9 x10_2/uL
same,KIDNEY_L,3 h,0.9 g
same,KIDNEY_R,3 h,0.9 g
same,KIDNEY_TOTAL,3 h,1.8 g
same,LIVER,3 h,8.6 g
same,A/G,3 h,1.2
same,ALP,3 h,1620.6 IU/L
same,ALT,3 h,45.2 IU/L
same,AST,3 h,76.4 IU/L
same,BUN,3 h,11.2 mg/dL
same,CRE,3 h,0.2 mg/dL
same,Ca,3 h,10.4 mg/dL
same,Cl,3 h,108.6 meq/L
same,DBIL,3 h,0 mg/dL
same,GLC,3 h,187.8 mg/dL
same,IP,3 h,8.4 mg/dL
same,K,3 h,3.8 meq/L
same,LDH,3 h,165.2 IU/L
same,Na,3 h,141.8 meq/L
same,PL,3 h,132 mg/dL
same,RALB,3 h,2.8 g/dL
same,TBIL,3 h,0 mg/dL
same,TC,3 h,81 mg/dL
same,TG,3 h,66.2 mg/dL
same,TP,3 h,5.2 g/dL
same,gamma-GTP,3 h,1 IU/L
same,TERMINAL_BW,6 h,208.8 g
same,APTT,6 h,22.5 s
same,Bas,6 h,0%
same,Eos,6 h,0.4%
same,Fbg,6 h,305.6 mg/dL
same,Hb,6 h,12.5 g/dL
same,Ht,6 h,38.7%
same,Lym,6 h,79.6%
same,MCH,6 h,20.4 pg
same,MCHC,6 h,32.2%
same,MCV,6 h,63.4 fL
same,Mono,6 h,1.8%
same,Neu,6 h,17.2%
same,PT,6 h,16 s
same,Plat,6 h,126.1 x10_4/uL
same,RBC,6 h,611.2 x10_4/ul
same,Ret,6 h,7.3%
same,WBC,6 h,94.6 x10_2/uL
same,KIDNEY_L,6 h,0.9 g
same,KIDNEY_R,6 h,0.9 g
same,KIDNEY_TOTAL,6 h,1.8 g
same,LIVER,6 h,9.1 g
same,A/G,6 h,1.2
same,ALP,6 h,1368 IU/L
same,ALT,6 h,38 IU/L
same,AST,6 h,69 IU/L
same,BUN,6 h,15.6 mg/dL
same,CRE,6 h,0.2 mg/dL
same,Ca,6 h,10.5 mg/dL
same,Cl,6 h,106.2 meq/L
same,DBIL,6 h,0 mg/dL
same,GLC,6 h,195.8 mg/dL
same,IP,6 h,7.8 mg/dL
same,K,6 h,4.2 meq/L
same,LDH,6 h,168.6 IU/L
same,Na,6 h,141.2 meq/L
same,PL,6 h,137 mg/dL
same,RALB,6 h,2.8 g/dL
same,TBIL,6 h,0 mg/dL
same,TC,6 h,82 mg/dL
same,TG,6 h,63 mg/dL
same,TP,6 h,5.2 g/dL
same,gamma-GTP,6 h,1.4 IU/L
same,TERMINAL_BW,9 h,208.4 g
same,APTT,9 h,22.5 s
same,Bas,9 h,0%
same,Eos,9 h,0.4%
same,Fbg,9 h,290.4 mg/dL
same,Hb,9 h,12.5 g/dL
same,Ht,9 h,39.2%
same,Lym,9 h,79.4%
same,MCH,9 h,20.4 pg
same,MCHC,9 h,31.9%
same,MCV,9 h,63.8 fL
same,Mono,9 h,1.6%
same,Neu,9 h,18%
same,PT,9 h,15.9 s
same,Plat,9 h,120.7 x10_4/uL
same,RBC,9 h,613.6 x10_4/ul
same,Ret,9 h,7.1%
same,WBC,9 h,83.1 x10_2/uL
same,KIDNEY_L,9 h,0.9 g
same,KIDNEY_R,9 h,1 g
same,KIDNEY_TOTAL,9 h,1.9 g
same,LIVER,9 h,9.2 g
same,A/G,9 h,1.2
same,ALP,9 h,1788.6 IU/L
same,ALT,9 h,45.2 IU/L
same,AST,9 h,75.4 IU/L
same,BUN,9 h,13.4 mg/dL
same,CRE,9 h,0.2 mg/dL
same,Ca,9 h,10.5 mg/dL
same,Cl,9 h,105 meq/L
same,DBIL,9 h,0 mg/dL
same,GLC,9 h,202.8 mg/dL
same,IP,9 h,7.7 mg/dL
same,K,9 h,4.3 meq/L
same,LDH,9 h,145.6 IU/L
same,Na,9 h,140.8 meq/L
same,PL,9 h,134.8 mg/dL
same,RALB,9 h,2.9 g/dL
same,TBIL,9 h,0.004 mg/dL
same,TC,9 h,79 mg/dL
same,TG,9 h,71.2 mg/dL
same,TP,9 h,5.3 g/dL
same,gamma-GTP,9 h,1.4 IU/L
same,TERMINAL_BW,24 h,216 g
same,APTT,24 h,22.7 s
same,Bas,24 h,0%
same,Eos,24 h,0.6%
same,Fbg,24 h,321.6 mg/dL
same,Hb,24 h,12.3 g/dL
same,Ht,24 h,38.4%
same,Lym,24 h,83.8%
same,MCH,24 h,20.3 pg
same,MCHC,24 h,32.1%
same,MCV,24 h,63.4 fL
same,Mono,24 h,1.6%
same,Neu,24 h,13.4%
same,PT,24 h,16 s
same,Plat,24 h,120 x10_4/uL
same,RBC,24 h,606.2 x10_4/ul
same,Ret,24 h,7.7%
same,WBC,24 h,76.3 x10_2/uL
same,KIDNEY_L,24 h,1 g
same,KIDNEY_R,24 h,1 g
same,KIDNEY_TOTAL,24 h,2 g
same,LIVER,24 h,9.4 g
same,A/G,24 h,1.2
same,ALP,24 h,1563.4 IU/L
same,ALT,24 h,40.8 IU/L
same,AST,24 h,69 IU/L
same,BUN,24 h,14 mg/dL
same,CRE,24 h,0.2 mg/dL
same,Ca,24 h,10.5 mg/dL
same,Cl,24 h,105.4 meq/L
same,DBIL,24 h,0.002 mg/dL
same,GLC,24 h,196 mg/dL
same,IP,24 h,8.9 mg/dL
same,K,24 h,3.9 meq/L
same,LDH,24 h,182.4 IU/L
same,Na,24 h,141.6 meq/L
same,PL,24 h,144.2 mg/dL
same,RALB,24 h,2.9 g/dL
same,TBIL,24 h,0.002 mg/dL
same,TC,24 h,85.6 mg/dL
same,TG,24 h,55.4 mg/dL
same,TP,24 h,5.3 g/dL
same,gamma-GTP,24 h,1.8 IU/L
